In patent US20260232750A1, “COMPOSITION AND METHOD FOR INHIBITING ADVANCED GLYCATION END PRODUCTS” (ACCESS BUSINESS GROUP INTERNATIONAL LLC, priority 2022, published 2026):
“Also recorded” adds a separate entry of the source. Read-outs that look alike come from different tables or passages of the source.

What was measured:
Assay type in all cases: biochemical
DPPH· scavenging assay = assay: DPPH· scavenging assay
[1] = FRAP total antioxidant capacity assay
Protocol: (§1) Fast colourimetric methods were slightly modified for the in vitro assessment of DPPH· scavenging, ABTS·+ decolourisation capacity, and total antioxidant capacity of FRAP. The stock solutions of derivatisation reagents were diluted as follows before measurement: DPPH was diluted with absolute ethanol until the absorbance was 0.8±0.05 at λ=517 nm. ABTS working solution was prepared with phosphate buffer (0.2 M, pH 7.4) to display absorbance of 0.8±0.05 at λ=729 nm, based on a previous study. The FRAP solution was prepared according to the instructions of the FRAP kit. Absorbances were measured using an automatic microplate reader (Molecular Group Ltd., USA), and all analyses were performed using 96-well plates. All measurements were performed in triplicate, and Trolox was used as a positive control.
For total antioxidant capacity, 180 μl of FRAP solution was mixed with 5 μl of sample solution, and the absorbance was measured after 5 min at […] with PBS as the negative control. FeSO4 solutions (0.15, 0.3, 0.6, 0.9, 1.2, and 1.5 mM) were used for the calibration curve. The FRAP value represents the corresponding concentration of FeSO4 solutions (mM FeSO4). The regression equation from the standard curve was used to calculate the equivalent concentration 1 (EC1) of each sample. EC1 is defined as the concentration of the test sample with an absorbance equivalent to that of 1.0 mmol/L of FeSO4 solution, determined by its calibration curve.

COX-2 = target: T1, COX-2 (Homo sapiens, UniProt P35354); assay: Anti-COX-2 assay (COX-2 Inhibitor Screening Kit)
T1 construct: purchased Beyotime S0168
T1 sequence (P35354 18-604): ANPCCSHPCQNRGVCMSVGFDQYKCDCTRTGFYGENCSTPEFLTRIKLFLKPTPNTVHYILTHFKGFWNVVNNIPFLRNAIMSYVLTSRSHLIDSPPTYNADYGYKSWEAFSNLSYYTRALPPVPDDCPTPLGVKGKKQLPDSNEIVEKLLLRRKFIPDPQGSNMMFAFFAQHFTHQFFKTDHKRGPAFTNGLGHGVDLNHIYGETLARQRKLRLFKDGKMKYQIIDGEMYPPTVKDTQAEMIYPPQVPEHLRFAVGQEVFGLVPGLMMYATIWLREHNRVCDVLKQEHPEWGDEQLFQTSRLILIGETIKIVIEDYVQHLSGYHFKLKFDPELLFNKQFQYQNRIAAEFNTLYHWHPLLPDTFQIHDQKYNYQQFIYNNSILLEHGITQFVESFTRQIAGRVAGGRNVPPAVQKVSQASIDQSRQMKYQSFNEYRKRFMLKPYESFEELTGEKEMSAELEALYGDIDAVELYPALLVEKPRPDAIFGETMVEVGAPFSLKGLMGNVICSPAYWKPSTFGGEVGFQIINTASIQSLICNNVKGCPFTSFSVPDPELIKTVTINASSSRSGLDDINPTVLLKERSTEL
Protocol: Anti-inflammatory activity was assessed by measuring COX-2 enzymatic inhibition on the basis of a described method by using the COX-2 Inhibitor Screening Kit (Beyotime, No. S0168). Celecoxib, a COX-2 inhibitor, was used as a positive control.

[2] = Online UPLC-PDA-MS-ABTS·+ scavenging (post-column derivatisation); conditions: online profiling of DOF extract
Protocol: Online identification of antioxidant components of DOF extract was performed using a UPLC system (Milford, MA, USA) consisting of a Waters photodiode array detector and a Waters postcolumn derivatisation system supplying fresh ABTS solution (UPLC-PDA-QDa-ABTS). […] The detection wavelengths were set at 280 and 734 nm, and the injection volume of the sample was 10 μl.
To detect radical scavengers, the UPLC system was coupled with a Waters pump, which supplied freshly prepared ABTS·+ solution into a reaction coil (15 m, 0.25 mm ID) with a flow rate of 0.2 ml/min at 37° C. Negative peaks were recorded based on a decrease of absorbance at 729 nm after the reaction of individual compounds with the ABTS·+ radical. For preliminary identification of compounds, a Waters Acquity QDa mass detector in negative ionisation mode was connected in series to PDA with the following parameters: electrospray ion source; cone voltage, 15 V; atomiser, N2; and scanning range, 100-800 m/z.

[3] = ABTS·+ decolourisation assay; conditions: for IC50: read-out: IC50 against the ABTS radical
Protocol: as §1
For ABTS·+ decolourisation capacity, 100 μl of ABTS working solution was mixed with 200 μl of sample solution, and the absorbance was recorded after 10 min at 729 nm. Phosphate buffer (0.2 M, pH 7.4) was used as a negative control.
DPPH· and ABTS·+ radical scavenging activities of the tested sample were both calculated using the following formula: […]
where A control and A sample represent the absorbance of the control and test samples, respectively. The IC50 was calculated graphically from the dose-inhibition curves.

Compound	antioxidant ability by DPPH (in words) (DPPH· scavenging assay)	antioxidant ability by FRAP (in words) [1]	FRAP EC1 (mM) ([1]; Table 11, mean ± SD, n = 3)	COX-2 inhibition (in words) (COX-2)	ABTS radical scavenging by size of negative peaks at 734 nm (in words) [2]	IC50 [3]	antioxidant ability by DPPH (in words) (DPPH· scavenging assay; listed as isoquercitrin)	FRAP EC1 ([1]; Table 11, mean ± SD, n = 3)	antioxidant ability by FRAP (in words) ([1]; listed as isoquercitrin)	COX-2 inhibition (in words) (COX-2; listed as isoquercitrin)	ABTS IC50 ([3]; text b269)	FRAP EC1 ([1]; concentration equivalent to 1.0 mmol/L FeSO4, text b269)
O=c1cc(-c2ccc(O)c(O)c2)oc2c(C3OC(CO)C(O)C(O)C3O)c(O)c(C3OCC(O)C(O)C3O)c(O)c12 [Compound 11, Luteolin-6-C-β-D-xyloside-8-C-β-D-glucoside]	great antioxidant potency	great antioxidant potency	1,009.1 µM	great COX-2 inhibition; also recorded: outstanding COX-2 inhibitory effects	strongest ABTS radical scavengers							
O=c1cc(-c2ccc(O)cc2)oc2c([C@@H]3O[C@H](CO)[C@@H](O)[C@H](O)[C@H]3O)c(O)c([C@@H]3OC[C@@H](O)[C@H](O)[C@H]3O)c(O)c12 [Compound 14, Vicenin-1]						96.4 ± 2.11 µM						
O=c1c(O[C@@H]2O[C@H](CO)[C@@H](O)[C@H](O)[C@H]2O)c(-c2ccc(O)c(O)c2)oc2cc(O)cc(O)c12 [Compound 25, Isoquercitrin]	great antioxidant potency	great antioxidant potency		great COX-2 inhibition; also recorded: outstanding COX-2 inhibitory effects	strongest ABTS radical scavengers		selective and significant antioxidant abilities	520 µM	selective and significant antioxidant abilities	potent COX-2 inhibitory capacity		
O=C(O)CC(=O)OCC1OC(Oc2c(-c3ccc(O)c(O)c3)oc3cc(O)cc(O)c3c2=O)C(O)C(O)C1O (stereo not shown) [Compound 27, Quercetin 3-O-(6″-malonyl-glucoside)]	great antioxidant potency	great antioxidant potency		great COX-2 inhibition; also recorded: outstanding COX-2 inhibitory effects	strongest ABTS radical scavengers			827 µM				
O=c1c(OC2OC(CO)C(O)C(O)C2OC2OC(CO)C(O)C(O)C2O)c(-c2ccc(O)c(O)c2)oc2cc(O)cc(O)c12 (stereo not shown) [Compound 16, Quercetin-3-O-sophoroside]	great antioxidant potency	great antioxidant potency		great COX-2 inhibition; also recorded: outstanding COX-2 inhibitory effects	strongest ABTS radical scavengers	6.63 ± 0.41 µM		950 µM				
Cc1c(C)c2c(c(C)c1O)CCC(C)(C(=O)O)O2 (stereo not shown) [Trolox, 6-hydroxyl-2,5,7,8-tetra-methylchroman-2-carboxylic acid, reference compound]								560 µM			27.68 ± 1.04 µg/mL	55.35 ± 5.22 µg/mL
